Results from patent publication US9517237B2, “Compounds and methods for treating multiple sclerosis” (NEURO VIGOR, LLC, priority 2010, dated 2016).

Tests used:
EAE mice = tested on: EAE mice
Experimental: Animals. C57BL/6 female mice (8 weeks old) were purchased from Harlan Laboratories and were maintained in the lab animal housing facilities. These studies were performed in compliance with the Purdue Animal Care and Use Committee protocol guidelines at Purdue University, West Lafayette, Ind.
Induction of EAE. Nine-twelve week old mice were subcutaneously injected with 0.1 mL MOG35-55/CFA emulsion (EK-0115, Hooke Laboratories) in the neck and lower back (total of 0.2 mL). Within two hours of the injection, 0.1 mL pertussis toxin (EK-0115, Hooke Laboratories) was administered intraperitoneally. A second dose of pertussis toxin of the same volume was given 22-26 hours later. The behavioral performance was assessed using a well established 5-point behavioral scoring system (Kalyvas and David, 2004). The animals were placed on a metal grate and their walking ability was recorded. The scoring system is as follows: 0—no deficit; 1—limp tail only; 2—hind limb paresis but without leg dragging; 3—partial hind limb weakness with one or both legs dragging; 4—complete hind limb paralysis; 5—moribund, paralysis in hind limbs and possibly in one forelimb. The animals were monitored and assessed three times during the first week and then assessed daily for the remainder of the study.
(§1) Hydralazine Treatment. A solution of hydralazine hydrochloride (Sigma) was prepared with phosphate buffered saline. The solution was then sterilized through a filter and stored at 4° C. Hydralazine (1 mg/kg) was administered through daily with intraperitoneal injections from the day the MOG/CFA emulsion was administered until the end of the 30 day study period. For sham treatments, mice were administered saline intraperitoneally rather than the hydralazine solution. Blood pressures were monitored using a CODA 2 system (Kent Scientific Corp.).
(§2) One group of EAE mice are injected with hydralazine (EAE+HZ) at the dose of 1 mg/kg daily starting from the day of induction (n=11). In the sham-treated group (EAE), an equal amount of saline is injected daily (n=12). Both hydralazine and saline (sham) treatments are carried out for 30 days post induction. The behavioral scores of the two groups of mice are recorded daily (FIG. 2 panel A).
Phenelzine is administered via intraperitoneal (IP) injections at 15 mg/kg for 30 days. […] The highest score for each mouse was taken and averaged within each group. All data are expressed as mean±SEM.

[1] = mouse, in vivo
Experimental: as §1, §2

acrolein-lysine adducts = details: EAE mice treated with hydralazine, n=3, mean±SEM; EAE 20.27±3.0, control 12.30±1.3
Experimental: Acrolein-lysine adducts in the tissue homogenate was measured using a Bio-Dot SF Microfiltration Apparatus (Bio-Rad, Hercules, Calif., USA), as previously described (Luo et al., 2005a; Shao et al., 2006; Hamann et al., 2008a). Briefly, the tissue was homogenized with TritonX-100 (3%), and the following anti-proteases were added: 2 mmol/L pefabloc, 15 lmol/L pepstatin A, 20 µg/mL aprotinin, and 25 µg/mL leupeptin. The solution was centrifuged to pellet large pieces of tissue and the supernatant was stored at −80° C. until transferred to a nitrocellulose membrane. The membrane was blocked for 1 h in blocking buffer (0.2% casein and 0.1% Tween 20 in PBS) and transferred to 1:1000 polyclonal rabbit anti-acrolein (in blocking buffer with 2% goat serum and 0.025% sodium azide) (Novus Biologicals) for 18 h at 4° C. Next, the membrane was washed in blocking buffer and then transferred to 1:10000 alkaline phosphatase conjugated goat anti-rabbit IgG. […]
The optical density of bands was evaluated using Image J (NIH) and statistical comparison was performed with SAS 9.2 (SAS institute). […]
The acrolein-lysine adducts in control (n=3), EAE mice (n=3) and EAE+HZ mice (n=3) spinal cord are detected using Bio-Dot SF Microfiltration Apparatus. […] Band intensities are analyzed using ImageJ (NIH) and are expressed in arbitrary units. […] All data are expressed as mean±SEM.

EAE mice spinal cord = details: thoracic spinal cord cross section, n=3, sham treated 25.58±3.8%
Experimental: Mice were perfusion fixed with 4% paraformaldehyde and the vertebral columns were removed and fixed in 4% paraformaldehyde overnight. Spinal cord tissues were extracted out of the vertebral column, cut into 1 cm pieces, and further fixed in 4% paraformaldhyde for 24-48 hours. The samples were cryoprotected by incubating for 24 h in a 10% sucrose solution, followed by 24 hours in a 20% sucrose solution. The samples were then imbedded in Tissue-Tek OCT compound (VWR, Batavia, Ill.) and frozen in liquid nitrogen. 15 μm sections were cut using a cryostat and mounted on gelatin coated slides. Sections were incubated with 5% goat serum and 0.5% Triton-X100 in phosphate buffered saline (PBS) for 30 minutes as blocking agents. […] All sections were observed by fluorescence microscopy.
For quantification, the thoracic sections were imaged, and Adobe Photoshop was used to outline the demyelination area and total white matter area. Pixel area for each sample was calculated and the percentage of demyelination was obtained by dividing the total demyelinated area by total white matter area. […] For each of the 3 groups, (control, EAE, EAE+HZ), 3 animals were used for immunofluorescence quantification.
Total white matter area and lesion areas are manually outlined and the pixel area is calculated. Percent demyelination is calculated by dividing total demyelinated area by total white matter area.

NNc1nncc2ccccc12 [hydralazine]
average onset of symptoms (EAE mice; 1 mg/kg daily i.p. from day of induction, n=11, mean±SEM, sham 15.42±0.4): 21.73±2.1 days post induction
average behavioral score (highest score for each mouse averaged within group) (EAE mice; 5-point scale, 1 mg/kg daily i.p. from day of induction, mean±SEM, EAE group 3.33±0.3): 1.72±0.4
average systolic pressure of EAE mice [1]: 134.8±4.5 mmHg
average systolic pressure of normal mice [1]: 118.5±6.4 mmHg
acrolein-lysine adduct level in EAE mice spinal cord (acrolein-lysine adducts): 15.14±1.6 a.u.
percent demyelination in white matter (EAE mice spinal cord): 5.10±4.2%

NNCCc1ccccc1 [phenelzine]
behavioral scores evaluated daily (EAE mice; 5-point scale, phenelzine IP 15 mg/kg for 30 days, vs sham): significant differences for all comparisons following day 14
mean behavioral scores (highest score for each mouse averaged) (EAE mice; phenelzine IP 15 mg/kg for 30 days, vs EAE, p<0.005): mean behavioral scores are significantly increased in EAE mice compared to the phenelzine treated (EAE+PLZ) group
time to EAE symptom onset (EAE mice; phenelzine IP 15 mg/kg for 30 days, vs sham, p<0.005): significant delay in disease progression
